{
  "source": "patent US12595269B2",
  "about": "“Morpholine-like monoamine releasers” (Solvonis Therapeutics Ireland Holdings Limited, priority 2022, dated 2026)",
  "format_in_all_cases": "in vitro ADME",
  "key": {"[1]": {"target": "T1, CYP2B6 (Homo sapiens, UniProt P20813)", "T1 construct": "purchased Life Technologies P3028; host or cells: Baculosomes", "T1 sequence (P20813 1-491)": "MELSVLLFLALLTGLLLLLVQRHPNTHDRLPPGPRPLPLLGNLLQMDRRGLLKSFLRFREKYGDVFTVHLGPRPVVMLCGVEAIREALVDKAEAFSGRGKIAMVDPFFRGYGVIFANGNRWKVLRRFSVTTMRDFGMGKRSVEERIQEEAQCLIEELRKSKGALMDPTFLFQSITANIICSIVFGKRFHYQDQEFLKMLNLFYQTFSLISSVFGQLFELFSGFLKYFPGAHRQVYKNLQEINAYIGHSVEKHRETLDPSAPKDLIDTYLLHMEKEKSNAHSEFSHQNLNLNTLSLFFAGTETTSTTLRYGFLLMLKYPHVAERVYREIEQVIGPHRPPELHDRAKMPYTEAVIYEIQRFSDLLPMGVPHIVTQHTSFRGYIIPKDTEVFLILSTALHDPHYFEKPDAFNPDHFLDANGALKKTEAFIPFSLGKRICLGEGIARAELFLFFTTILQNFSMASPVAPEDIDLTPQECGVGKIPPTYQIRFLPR", "experiment": "CYP450 inhibition, Vivid CYP2B6 Baculosomes, BOMCC substrate", "description": "(§1) Methods and Procedure: The study was performed in agreement with previously described procedures to assure data integrity and adherence to GLP standards. Briefly, recombinant human CYP450 isoenzymes were used to metabolize pro-fluorescent probe substrates to fluorescent products. IC50 values determined from the effect of test compounds on the metabolism of these probe substrates were then used to determine inhibitory potency against CYP450 isoforms.\n(§2) The test system was based on a three-step procedure with a “mix and read” format, where PGP-432,TI reaction and reading were performed at 37° C. […] Fluorescence was measured in kinetic mode (1 read/minutes for 10 minutes), and the fluorescence rate was calculated. […]\nNext, 10 μL/well from the compound plate was added and incubated for 10 minutes at 37° C. on a plate shaker, while a mixture of Vivid Substrate and Vivid NADP+ in Vivid CYP450 Reaction Buffer was prepared. The reaction was initiated by adding 10 μL/well of the Vivid Substrate and NADP+ mixture, before transferring the plate into the fluorescent plate reader (immediately, within 2 minutes), and fluorescence was monitored every minute for 10 minutes according to the specific protocol. Regarding data analysis, the inhibition effect is expressed as a percentage. […]"}, "[2]": {"target": "T2, CYP2C9 (Homo sapiens, UniProt P11712)", "T2 construct": "host or cells: recombinant microsomes", "T2 sequence (P11712 whole entry)": "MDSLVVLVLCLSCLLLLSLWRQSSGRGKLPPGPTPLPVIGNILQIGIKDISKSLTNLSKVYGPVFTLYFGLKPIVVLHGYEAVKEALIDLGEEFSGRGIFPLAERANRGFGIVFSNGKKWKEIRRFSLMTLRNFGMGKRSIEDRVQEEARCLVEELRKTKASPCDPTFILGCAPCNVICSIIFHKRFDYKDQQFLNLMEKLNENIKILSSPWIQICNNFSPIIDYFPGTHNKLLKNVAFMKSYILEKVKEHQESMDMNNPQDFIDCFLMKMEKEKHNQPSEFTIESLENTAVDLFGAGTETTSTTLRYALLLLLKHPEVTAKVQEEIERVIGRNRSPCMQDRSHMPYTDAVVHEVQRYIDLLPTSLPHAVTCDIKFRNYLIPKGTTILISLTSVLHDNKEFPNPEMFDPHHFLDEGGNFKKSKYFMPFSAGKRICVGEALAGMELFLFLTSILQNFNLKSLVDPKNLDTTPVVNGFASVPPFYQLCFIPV", "experiment": "CYP450 inhibition, fluorescent probe, recombinant microsomes: CYP2C9", "description": "as §1, §2\n(§3) Microsomes were added to the buffer prior to the substrate addition. […] For fluorescence measurement, 10 μL/well of the test compounds were transferred from the compound plate to the assay plate using Biomek FX and the appropriate protocol. […]\n(§4) 10 μL/well of the cofactor was then added to the assay plate using the Multidrop before placing the assay plate in the plate reader EnVision to measure fluorescence. […]\n(§5) Next, 10 μL/well from the compound plate was added and incubated for 10 minutes at 37° C. on a plate shaker, while a mixture of Vivid Substrate and Vivid NADP+ in Vivid CYP450 Reaction Buffer was prepared. […] Regarding data analysis, the inhibition effect is expressed as a percentage. […]"}, "[3]": {"target": "T3, CYP2D6 (Homo sapiens, UniProt P10635)", "T3 construct": "host or cells: recombinant microsomes", "T3 sequence (P10635 whole entry)": "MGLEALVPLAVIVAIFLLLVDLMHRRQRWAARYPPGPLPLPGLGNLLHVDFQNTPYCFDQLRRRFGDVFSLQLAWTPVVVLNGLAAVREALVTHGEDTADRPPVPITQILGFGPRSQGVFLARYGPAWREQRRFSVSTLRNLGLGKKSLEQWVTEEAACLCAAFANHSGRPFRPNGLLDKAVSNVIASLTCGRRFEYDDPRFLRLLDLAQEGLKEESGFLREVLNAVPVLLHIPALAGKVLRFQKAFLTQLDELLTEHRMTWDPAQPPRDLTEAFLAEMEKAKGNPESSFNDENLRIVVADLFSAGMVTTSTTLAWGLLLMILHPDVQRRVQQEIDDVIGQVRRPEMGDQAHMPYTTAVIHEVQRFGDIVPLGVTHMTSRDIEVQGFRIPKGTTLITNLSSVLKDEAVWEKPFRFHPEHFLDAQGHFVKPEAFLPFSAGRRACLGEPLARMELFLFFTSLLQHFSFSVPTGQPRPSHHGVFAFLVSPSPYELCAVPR", "experiment": "CYP450 inhibition, fluorescent probe, recombinant microsomes: CYP2D6", "description": "as §1, §2, §3, §4, §5"}},
  "note": "Like-named read-outs stand apart in the source and are kept apart here.",
  "data": [
    {"smiles": "Clc1ccc(C23CNC(CO2)C3)cc1Cl", "note": "(stereo not drawn) [522A, 1-(3,4-dichlorophenyl)-2-oxa-5-azabicyclo[2.2.1]heptane]", "values": [
      {"measurement": "IC50", "setting": "[1]; recombinant human CYP2B6", "result": 41, "unit": "µM"},
      {"measurement": "IC50", "setting": "[2]; recombinant human CYP2C9", "result": "> 50", "unit": "µM"},
      {"measurement": "IC50", "setting": "[3]; recombinant human CYP2D6, read-out: CYP450 Inhibition (IC50), CYP2D6", "result": 2.87, "unit": "µM"}
    ]},
    {"smiles": "CNC(C)Cc1ccc2c(c1)OCO2", "note": "(stereo not drawn) [MDMA, reference compound]", "values": [
      {"measurement": "IC50 at 10 min", "setting": "[1]; human, recombinant CYP2B6 Baculosomes, pH 8, probe Vivid BOMCC", "result": 50, "unit": "µM"},
      {"measurement": "IC50 at 10 min", "setting": "[2]; human, recombinant microsomes expressing CYP2C9", "result": 50, "unit": "µM"},
      {"measurement": "IC50", "setting": "[3]", "result": 1.6, "unit": "µM"}
    ]}
  ]
}
